Experimental data: patent publication US20240076699A1, “BIOSYNTHESIS OF SUBSTITUTED COMPOUNDS AND CANNABINOIDS” (Invizyne Technologies, Inc., priority 2022, published 2024)

How the values were obtained:
[1] = results in an inactive metabolite; cited from earlier work
[2] = Solubility in nonane overlay versus water; type: physicochemical
[3] = biological target: Bovine serum albumin (BSA) (Bos taurus, UniProt P02769); assay: BSA binding seen during extraction; conditions: reaction mixture extraction
Sequence of Bovine serum albumin (BSA) (P02769 25-607): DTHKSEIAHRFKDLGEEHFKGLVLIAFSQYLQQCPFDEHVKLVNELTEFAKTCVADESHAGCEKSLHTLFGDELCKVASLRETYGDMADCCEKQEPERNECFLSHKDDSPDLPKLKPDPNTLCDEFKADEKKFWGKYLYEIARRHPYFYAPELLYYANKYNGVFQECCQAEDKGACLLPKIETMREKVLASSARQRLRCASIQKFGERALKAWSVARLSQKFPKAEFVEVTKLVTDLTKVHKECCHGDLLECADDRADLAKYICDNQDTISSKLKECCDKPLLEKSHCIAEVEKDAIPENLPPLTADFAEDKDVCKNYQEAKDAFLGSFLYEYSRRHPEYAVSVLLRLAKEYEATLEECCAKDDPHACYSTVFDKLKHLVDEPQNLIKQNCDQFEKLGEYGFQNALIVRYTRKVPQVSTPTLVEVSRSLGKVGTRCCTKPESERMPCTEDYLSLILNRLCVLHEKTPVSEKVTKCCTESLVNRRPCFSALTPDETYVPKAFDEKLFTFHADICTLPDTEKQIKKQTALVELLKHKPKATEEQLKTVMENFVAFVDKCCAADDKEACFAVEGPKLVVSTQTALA
Source text: In one embodiment, upon formation of the THCA compound of the present invention, the compound is purified to isolate the produced THCA. The extraction of CBGA and THCA into ethylacetate formed an emulsion which could only be partially broken with the addition of hexane. Bovine serum albumin (BSA) binds both CBGA and THCA tightly and thus not all of the product is recoverable in the organic phase of the purification process. However, acid precipitation of the BSA with the addition of 1% HCl allows for the denaturation of BSA and subsequent unbinding of the CBGA and THCA to allow extraction and purification. In one embodiment, the HCl is added directly to the reaction mixture, which is then incubated for about 10 minutes to assure full denaturation of BSA. The mixture is then centrifuged for about 30 minutes at 4000 g. After centrifuging the mixture, the CBGA and THCA coprecipitate into pelleted form. The pellet is then washed with water until the water reaches a neutral pH. The pellet is then resuspended in methanol using vigorous vortexing. The methanol mixture was rotavapped over a water bath at 40° C., and the resulting oil was resuspended in ethanol. The THCA then precipitates as a brown oil. The reaction mixture is then filtered and washed with water and then resuspended in hexane. The hexane was then rotavapped to remove mass added to the product by excess […]. […]

[4] = nLC-MS/MS of CBGA and dCBGA samples after one hour; type: in vitro ADME
Description: (§1) Additional samples were subjected to nano-scale liquid chromatographic tandem mass spectrometry (nLC-MS/MS). Samples were prepared using 2 μL of standard and 198 μL of 50:50 water:acetonitrile in 0.1% formic acid. A 1 μL sample was injected.

[5] = nLC-MS/MS comparison of CBGA and dCBGA after one hour (degradation); type: in vitro ADME; conditions: matrix not stated
Description: as §1
Table 10 compares nLC-MS/MS data for the CBGA samples and dCBGA samples after one hour.
FIG. 26 illustrates a graph comparing CBGA and dCBGA. Sample 1, Sample 2, and Sample 3 are shown left to right for both CBGA and dCBGA.

[6] = biological target: T1, methionine adenosyltransferase (MAT) from Methanocaldococcusjannaschii (mj) (Methanocaldococcus jannaschii, UniProt Q58605); conditions: 5 mM met or d3-met, 10 μM MAT, 1 h room temperature
T1 sequence (Q58605 1-406): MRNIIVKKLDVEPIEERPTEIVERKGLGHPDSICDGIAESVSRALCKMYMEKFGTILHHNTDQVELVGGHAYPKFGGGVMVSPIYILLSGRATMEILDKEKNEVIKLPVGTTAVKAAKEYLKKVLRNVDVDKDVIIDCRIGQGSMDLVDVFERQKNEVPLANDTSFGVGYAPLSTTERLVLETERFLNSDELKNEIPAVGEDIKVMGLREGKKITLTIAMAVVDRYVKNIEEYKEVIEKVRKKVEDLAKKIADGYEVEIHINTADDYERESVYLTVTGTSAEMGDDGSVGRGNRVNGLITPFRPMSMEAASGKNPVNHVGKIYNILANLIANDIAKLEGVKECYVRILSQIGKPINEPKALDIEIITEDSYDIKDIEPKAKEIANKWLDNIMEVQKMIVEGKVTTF

[7] = biological target: T2, methionine adenosyltransferase (MAT) from Thermococcus kodakarensis (tk) (Thermococcus kodakarensis, UniProt Q5JF22); conditions: 5 mM met or d3-met, 10 μM MAT, 1 h room temperature
T2 sequence (Q5JF22 1-405): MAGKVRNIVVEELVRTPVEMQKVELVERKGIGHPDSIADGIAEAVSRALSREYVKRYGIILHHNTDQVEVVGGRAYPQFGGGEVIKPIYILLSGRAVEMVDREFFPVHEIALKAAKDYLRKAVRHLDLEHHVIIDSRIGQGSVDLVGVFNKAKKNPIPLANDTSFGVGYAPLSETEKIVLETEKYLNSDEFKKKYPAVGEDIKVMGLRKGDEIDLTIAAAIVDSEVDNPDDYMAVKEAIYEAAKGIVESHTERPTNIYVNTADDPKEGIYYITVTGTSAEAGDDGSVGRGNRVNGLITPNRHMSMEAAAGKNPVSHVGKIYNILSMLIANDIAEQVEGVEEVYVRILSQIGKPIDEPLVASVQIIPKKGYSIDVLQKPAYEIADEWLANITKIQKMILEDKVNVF

C=C(C)[C@@H]1CCC(C)=C[C@H]1c1c(O)cc(CCCCC)cc1O [CBD, cannabidiol]
metabolites with cleavage of the 5′ pentyl tail [1]: ~25%

CCCCCc1cc(O)c(C/C=C(\C)CCC=C(C)C)c(O)c1C(=O)O [CBGA, cannabigerolic acid, reference compound]
solubility in water compared with nonane [2]: more soluble in water than nonane | binding by BSA [3]: tightly | degradation after one hour, CBGA compared with dCBGA [4]: CBGA is significantly more degraded after one hour than dCBGA

CCCCCc1cc(O)c(C/C=C(\C)CCC=C(C)C)c(O)c1C(=O)O [CBGA, cannabigerolic acid]
degradation after one hour compared with dCBGA [5]: significantly more degraded after one hour than dCBGA

CCCc1cc(O)c(C/C=C(\C)CCC=C(C)C)c(O)c1C(=O)O [CBGVA, cannabierovarinic acid]
solubility in nonane [2]: limited solubility

CCCCCc1cc2c(c(O)c1C(=O)O)[C@@H]1C=C(C)CC[C@H]1C(C)(C)O2 [THCA, tetrahydrocannabinolic acid]
binding by BSA [3]: tightly

[2H]C([2H])([2H])SCC[C@H](N)C(=O)O [d3-met, d3-L-methionine]
MAT activity on substrate (Pi released per hour) [6]: equally active | MAT activity on substrate (Pi released per hour) [7]: equally active

CCCCCc1cc(O)c(C/C=C(\C)CCC=C(C)C)c(O)c1C(=O)O [dCBGA, d11-cannabigerolic acid]
degradation after one hour, CBGA compared with dCBGA [4]: CBGA is significantly more degraded after one hour than dCBGA

CSCC[C@H](N)C(=O)O [met, methionine, reference compound]
MAT activity on substrate (Pi released per hour) [6]: equally active | MAT activity on substrate (Pi released per hour) [7]: equally active
